The values that follow come from the METLIN SMRT retention time set (Domingo-Almenara et al. 2019).

Structures are written as SMILES.

A short description of the series: gradient 5% acetonitrile 3 min, to 50% in 2 min, to 85% in 15 min, held 3 min, 100 µL/min. The note with it: column: Zorbax Extend-C18 2.1 x 50 mm; eluents: water / acetonitrile, 0.1% formic acid. Put shortly: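 A Zorbax Extend-C18 column (2.1 × 50 mm, 1.8 μm) run at 100 μL/min with water and acetonitrile, both containing 0.1% formic acid, separated mixtures of ~100 pure standards. The HPLC was coupled to a quadrupole time-of-flight mass spectrometer operated in positive and negative ionization mode, with dead and dwell volumes of 40 μL and 900 μL. Each retention time was taken from a computationally picked adduct peak that was then manually inspected.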
With `Cc1ccc(-c2coc(-c3ccc(NC(=O)NCc4ccco4)cc3)n2)c(C)c1`, the RP-LC retention time came out at 1110 s.

Regarding `CCOC(=O)c1cccc(NC(=O)Cn2cnc3nc(N4CCCC(C(=O)NC)C4)sc3c2=O)c1` (stereo not given), the RP-LC retention time amounted to 678 s. The figure for `CCOc1ccc(NC(=O)c2cc3c(=O)n(CC)ccc3n2C)cc1` is 757 s; for `CCn1c(C2CCCN(C(=O)NCC(C)C)C2)nn(C)c1=O` (stereo not given) it is 628 s; for `COc1ccc(N2CCN(c3ccc4cc(S(=O)(=O)N5CCCCC5C)ccc4n3)CC2)cc1` (stereo not given) it is 991 s. Then `Cn1nccc1C(=O)N1CCc2c([nH]c3ccccc23)C1c1ccc(Cl)cc1` (stereo not given), with 1080 s; and `Cc1noc2nc(C)n(CC(=O)NCc3cccc(Br)c3)c(=O)c12`, with 805 s; and `CCn1cc(-c2nc(-c3ccc(OC)c(OC)c3)no2)c(=O)c2cc(F)ccc21`, with 811 s. The figure for `Fc1ccc(Cc2nc(-c3ccnc(N4CCCC4)c3)no2)cc1` is 708 s; for `O=C(COc1ccc(Cl)cc1)Nc1ccc2c(c1)N(C(=O)c1ccco1)CCC2` it is 948 s. For `Cc1nn(C(C)C(=O)NCCCN2CCN(C)CC2)c(=O)c2c(C)n(-c3ccccc3)nc12` (stereo not given), the RP-LC retention time is 592 s. Then `O=C(/C=C/c1ccccc1Cl)c1ccc(O)cc1`, with 944 s. Then `CCc1ccc2nc(C)cc(C(=O)NC(C)C)c2c1`, with 621 s; and `O=C(c1cncc(Br)c1)N1CCN(C(=O)c2cc(-c3ccncc3)n[nH]2)CC1`, with 578 s; and `CC(C)c1csc(-c2csc(S(=O)(=O)NCc3ccc(N(C)C)cc3)c2)n1`, with 930 s. The figure for `COCCCNC(=O)c1cc(-c2ccccc2)nc2n[nH]c(-c3ccccc3)c12` is 769 s. `Cc1cccc(-c2nc(Cn3nnc(-c4nc(-c5ccc6c(c5)OCO6)no4)c3C)c(C)o2)c1` had an RP-LC retention time of 1240 s. Take `O=C(Cn1nc(N2CCCCCC2)c2ccccc2c1=O)Nc1ccccc1F`: the RP-LC retention time was determined as 1120 s. `CC1=C(c2ccc(C(C)C)cc2)S(=O)(=O)N=C1N1CCCN(C(=O)c2ccoc2)CC1` showed an RP-LC retention time of 911 s. Then `Cc1nc2cc(-c3noc(-c4cc(Cl)ccc4F)n3)ccc2o1`, with 1150 s; and `CC(=O)NCc1nc2ccccc2n1CC(=O)Nc1ccccc1`, with 600 s; and `COc1ccccc1OC(C)C(=O)Nc1ccnn1Cc1cccs1` (stereo not given), with 842 s. `CCN(CC)CCSc1ccc(C(=O)N2CCN(c3ncccn3)CC2)cn1` came in with an RP-LC retention time of 600 s. The figure for `COC(=O)c1cnc(N2CCN(c3ccccc3F)CC2)c2ccccc12` is 1240 s.

For `CCOc1cc(CN2CCCC2c2cc(C)no2)ccc1OCC(N)=O` (stereo not given), the RP-LC retention time was determined as 580 s. Molecule `CC1=C(c2ccc(C)c(C)c2)S(=O)(=O)N=C1N1CCCN(C(=O)C2CCCC2)CC1` registered an RP-LC retention time of 912 s.

The molecule `CCCN1CCn2cc(S(=O)(=O)Nc3ccccc3C)cc2C1=O` had an RP-LC retention time of 746 s. The molecule `CCN(CC)c1ncc2c(n1)CCC(C(=O)NCc1ccc(C(C)C)cc1)C2` (stereo not given) registered an RP-LC retention time of 821 s. Then `CC1CC(=O)c2cnc(N3CCN(c4ccccn4)CC3)nc2C1` (stereo not given), with 611 s; and `CCOC(=O)C1CCN(C(=O)C2CCCN2S(=O)(=O)c2cc3c(cc2Cl)NC(=O)CO3)CC1` (stereo not given), with 710 s. Molecule `N#Cc1ccc(C(=O)N2CCN(c3cc(-c4ccc(F)cc4)[nH]n3)CC2)cc1` had an RP-LC retention time of 767 s.

For `C=CCn1c(=O)c2ccccc2n(Cc2nc(-c3cccc(OCC)c3)no2)c1=O`, the RP-LC retention time was determined as 1100 s. For `COc1ccc(-c2ccc(C(=O)N3CCCc4ccccc43)o2)c([N+](=O)[O-])c1`, the RP-LC retention time came out at 976 s. `Cn1c(-c2ccccc2)c(C(=O)C(=O)N2CCOCC2)c2ccccc21` showed an RP-LC retention time of 800 s. Then `CC(C)c1ccc(N2C=C(C(=O)N3CCCCC3)S(=O)(=O)c3ccccc32)cc1`, with 1040 s. The figure for `Cc1cc(-c2ccc3c(c2)CCN3C(=O)c2cccc(NC(=O)c3ccco3)c2)on1` is 841 s; for `CC1CCCN(C(=O)c2ccc(-n3cccn3)nc2)C1` (stereo not given) it is 825 s. Turning to `Cc1nc(OCC(=O)N2CCCCCC2)c2c(-c3ccc(F)cc3)noc2n1`, the RP-LC retention time turned out to be 1100 s.

For the molecule `CSc1cccc(NC(=O)c2cn(C)nc2S(=O)(=O)N2CCSCC2)c1`, the RP-LC retention time came to 973 s. Then `OCC1CN(c2ncccn2)CC12CCN(Cc1ccc3[nH]ccc3c1)CC2` (stereo not given), with 577 s; and `Cc1ccc(C(=O)N2CC=C(C(=O)NC3CC3)CC2)cc1`, with 847 s; and `CC1(O)C=CC(=O)C=C1`, with 551 s. The figure for `CCNc1nc(-c2ccc(C3CCCCC3)cc2)cs1` is 1060 s; for `CCOC(=O)C(C)NC(=O)N1CCN(c2nc3ccccc3nc2C(F)(F)F)CC1` (stereo not given) it is 921 s; for `Cc1ccccc1N1CCN(C(=O)c2ccc(CN3CCN(C(C)C)C(=O)C3=O)cc2)CC1` it is 811 s. The figure for `N#CCN(c1ccc(F)cc1)S(=O)(=O)c1ccc2nncn2c1` is 669 s; for `Cc1sc(C)c(S(=O)(=O)NCc2ccc(N(C)C)cc2)c1-c1cc(C(F)(F)F)on1` it is 960 s; for `Cc1ccc(NC(=O)Cn2nc(N(C)C)c3ccccc3c2=O)cc1` it is 857 s. As for `CN1CCC(=C2c3ccccc3C(O)c3ccccc32)CC1` (stereo not given), the RP-LC retention time was found to be 665 s. Then `O=C(NC1CCN(C(=O)C2CC2)C1)C1CCC1` (stereo not given), with 606 s. The figure for `Cc1cc2nc(N3CCOCC3)n(CC(=O)Nc3ccc(N(C)C)cc3)c(=O)c2n1C` is 623 s; for `CCCN1C(=O)c2c(C(=O)NCc3cccc(C)c3)ncn2CC1(C)C(=O)NCCC(C)C` (stereo not given) it is 879 s. The figure for `Cc1ccc(NC(=O)N(C)CCc2noc(COc3ccccc3F)n2)cc1F` is 943 s; for `CCOC(=O)c1c(C)c(CCC(=O)NCc2ccc3c(c2)OCO3)n(C)c1C` it is 836 s. `O=C(c1cc2ccccc2[nH]1)N1CCN(Cc2nc3ccccc3[nH]2)CC1` yielded an RP-LC retention time of 576 s. The figure for `COC(=O)c1c(-c2ccccc2)noc1NCc1ccccc1OC` is 1100 s; for `CSc1ccc(CNC(=O)c2cc3n(n2)CCCN(Cc2ccccc2)C3=O)cc1` it is 895 s. Then `O=C(NCCc1ccc(Cl)cc1)c1nnc(-c2ccc(S(=O)(=O)N3CCOCC3)cc2)o1`, with 925 s. Then `CCc1cccc(NC(=O)COc2cc(C)nc(N3CCN(c4ccccc4)CC3)n2)c1`, with 922 s; and `Cc1cc(OCC(=O)NCc2ccccc2Cl)nc(N2CCCC2)n1`, with 620 s.
